Reference: PMC7284125, “Identification of annotated bioactive molecules that impair motility of the blood fluke Schistosoma mansoni” (International Journal for Parasitology: Drugs and Drug …, 2020)

system: S. mansoni schistosomulae; assay: Phenotypic primary screen assay on schistosomulae (phenotype; viability by methylene blue dye exclusion); format: cell-based, Schistosoma mansoni; conditions: three-day-old schistosomulae, 10 μM, 24 h; estimated 5 days post compound exposure
Protocol: Puerto Rican strain Biomphalaria glabrata snails infected with S. mansoni were kindly provided by Dr. Fred Lewis (Biomedical Research Institute and BEI Resources, MD, USA). Schistosomulae were obtained by exposing six to eight weeks-old snails to continuous light for 2 h at 32 °C. […] At this point, animals with internal dark granulations and with no observable body contraction/relaxation cycles were considered dead.
Schistosomulae were monitored under a stereo microscope (SMZ1270, Nikon). Phenotypic observations were made by analyzing schistosomulae, 24 h after drug addition to assess any immediate effect and five days post-compound exposure to observe long-term impacts on both the movement and overall body shape in comparison to control animals exposed to DMSO only.

For `COc1ccc2cc1Oc1ccc(cc1)C[C@H]1c3cc(c(OC)cc3CCN1C)Oc1c(OC)c(OC)cc3c1[C@H](C2)N(C)CC3` [Tetrandrine], the Phenotype was “big, granulated”.
In the case of `O=C(O[C@H]1CN2CCC1CC2)N1CCc2ccccc2[C@@H]1c1ccccc1` [Solifenacin], the Phenotype is reported as “elongated, granulated, blebbing”.
In the case of `C=CC(=O)N1CCC[C@@H](n2nc(-c3ccc(Oc4ccccc4)cc3)c3c(N)ncnc32)C1` [Ibrutinib], the Phenotype is reported as “dark, granulated”.

system: S. mansoni schistosomulae; assay: Motility assay on schistosomulae (pixel displacement, relative to DMSO control); format: cell-based, Schistosoma mansoni; conditions: Schistosoma mansoni, 24 h, read-out: Fractional motility
Protocol: Puerto Rican strain Biomphalaria glabrata snails infected with S. mansoni were kindly provided by Dr. Fred Lewis (Biomedical Research Institute and BEI Resources, MD, USA). Schistosomulae were obtained by exposing six to eight weeks-old snails to continuous light for 2 h at 32 °C. The resulting suspension of cercaria was then mechanically transformed as described ([Lewis, 2001]) and cultured in Opti-MEM/antibiotics (Thermo Fisher Scientific, Waltham, MA) containing 100 μg/mL streptomycin and 100 units/ml penicillin supplemented with 5% fetal bovine serum (FBS; Thermo Fisher). Parasite cultures were incubated at 37 °C with 5% CO2 for at least 10 days with no apparent loss of viability. At this point, animals with internal dark granulations and with no observable body contraction/relaxation cycles were considered dead.
(§1) Schistosomulae (200/well) and adult parasites (unpaired worms) were maintained in 300 μL OPTI-MEM with 5% dialyzed FBS (without antibiotics) and exposed to compounds at 1 and 10 μM for 24 h. A kinetic assay consisting of 1, 3, 6 and 12 h incubation times was performed on selected hits by motility monitoring using a stereo microscope (SMZ1270, Nikon) for adults and an inverted microscope for schistosomulae (eclipse TE2000-U, Nikon) connected to a monochrome camera (DS-Qi2, Nikon) for image acquisition. Images were recorded at a rate of 10 frames/s for a period of 1 min and videos were analyzed using ImageJ software (version 1.41, NIH, USA). Parasite movement quantification and data analysis protocols were applied using the pixel displacement method ([Patocka et al., 2014]; [Rashid et al., 2015]) and compared to control parasites treated with DMSO. Parasites were then washed several times in Opti-MEM, 5% FBS and incubated up to an additional three days (schistosomulae) or five days (adult worms) at 37 °C, 5% CO2 and motility was recorded as described above.

`O=C(O[C@H]1CN2CCC1CC2)N1CCc2ccccc2[C@@H]1c1ccccc1` [Solifenacin] gave an activity at 1 µM of -30%.

same assay, conditions: Schistosoma mansoni, 120 h, read-out: Fractional motility

Work on `O=C(O[C@H]1CN2CCC1CC2)N1CCc2ccccc2[C@@H]1c1ccccc1` [Solifenacin] yielded an activity at 1 µM of -59%.

same assay, conditions: Schistosoma mansoni, 120 h; schistosomulae, secondary screen, 24h exposure, read at D5, 1 µM; read-out: Fractional motility

Compared with `COc1ccc2cc1Oc1ccc(cc1)C[C@H]1c3cc(c(OC)cc3CCN1C)Oc1c(OC)c(OC)cc3c1[C@H](C2)N(C)CC3` [Tetrandrine], `C=CC(=O)N1CCC[C@@H](n2nc(-c3ccc(Oc4ccccc4)cc3)c3c(N)ncnc32)C1` [Ibrutinib] is higher in activity at 1 µM: -31% for the first, 244% for the second.

same assay, conditions: Schistosoma mansoni; schistosomulae, secondary screen, 24h exposure, read at D1, 1 µM; read-out: Fractional motility

Going from `COc1ccc2cc1Oc1ccc(cc1)C[C@H]1c3cc(c(OC)cc3CCN1C)Oc1c(OC)c(OC)cc3c1[C@H](C2)N(C)CC3` [Tetrandrine] to `C=CC(=O)N1CCC[C@@H](n2nc(-c3ccc(Oc4ccccc4)cc3)c3c(N)ncnc32)C1` [Ibrutinib], the activity at 1 µM falls from -9% to -18%.

same assay, conditions: schistosomulae, secondary screen, 24h exposure, read at D1, 10 µM

Compared with `COc1ccc2cc1Oc1ccc(cc1)C[C@H]1c3cc(c(OC)cc3CCN1C)Oc1c(OC)c(OC)cc3c1[C@H](C2)N(C)CC3` [Tetrandrine], `O=C(O[C@H]1CN2CCC1CC2)N1CCc2ccccc2[C@@H]1c1ccccc1` [Solifenacin] is higher in Fractional motility: -0.39 for the first, 1.46 for the second.

Work on `C=CC(=O)N1CCC[C@@H](n2nc(-c3ccc(Oc4ccccc4)cc3)c3c(N)ncnc32)C1` [Ibrutinib] yielded a Fractional motility of 0.000588.

same assay, conditions: schistosomulae, secondary screen, 24h exposure, read at D5, 10 µM

Compared with `COc1ccc2cc1Oc1ccc(cc1)C[C@H]1c3cc(c(OC)cc3CCN1C)Oc1c(OC)c(OC)cc3c1[C@H](C2)N(C)CC3` [Tetrandrine], `O=C(O[C@H]1CN2CCC1CC2)N1CCc2ccccc2[C@@H]1c1ccccc1` [Solifenacin] is higher in Fractional motility: -0.87 for the first, 0.44 for the second.

With `C=CC(=O)N1CCC[C@@H](n2nc(-c3ccc(Oc4ccccc4)cc3)c3c(N)ncnc32)C1` [Ibrutinib] the Fractional motility was -0.29.

system: S. mansoni adult worms; assay: Motility assay on adult parasites (pixel displacement, relative to DMSO control); format: cell-based, Schistosoma mansoni; conditions: adults, 10 μM, long-term after washout
Protocol: Adult parasites were collected from 40 day-old female CD1 mice (Charles River) previously inoculated by the tail infection method ([Lewis, 2001]). Six weeks post-infection, mice were sacrificed, and adult worms extracted after perfusion of in the hepatic portal vein and mesenteric venules ([Lewis, 2001]). Animal procedures were reviewed and approved by the Facility Animal Care Committee of McGill University (Protocol No. 3346) and were conducted in accordance with the guidelines of the Canadian Council on Animal Care.
as §1

`COc1ccc2cc1Oc1ccc(cc1)C[C@H]1c3cc(c(OC)cc3CCN1C)Oc1c(OC)c(OC)cc3c1[C@H](C2)N(C)CC3` [Tetrandrine] was tested, and the “motility phenotype in words” value was “strongly impaired movement”.

same assay, conditions: secondary screen, 10 μM, D1, Female adult worms

First: COc1ccc2cc1Oc1ccc(cc1)C[C@H]1c3cc(c(OC)cc3CCN1C)Oc1c(OC)c(OC)cc3c1[C@H](C2)N(C)CC3 [Tetrandrine]
Second: O=C(O[C@H]1CN2CCC1CC2)N1CCc2ccccc2[C@@H]1c1ccccc1 [Solifenacin]
The Fractional motility of the first is lower: -0.51 for the first, 1.59 for the second.

`C=CC(=O)N1CCC[C@@H](n2nc(-c3ccc(Oc4ccccc4)cc3)c3c(N)ncnc32)C1` [Ibrutinib] showed a Fractional motility of 0.33.

same assay, conditions: secondary screen, 10 μM, D1, Male adult worms

First: COc1ccc2cc1Oc1ccc(cc1)C[C@H]1c3cc(c(OC)cc3CCN1C)Oc1c(OC)c(OC)cc3c1[C@H](C2)N(C)CC3 [Tetrandrine]
Second: O=C(O[C@H]1CN2CCC1CC2)N1CCc2ccccc2[C@@H]1c1ccccc1 [Solifenacin]
The Fractional motility of the first is lower: -0.37 for the first, 2.65 for the second.

`C=CC(=O)N1CCC[C@@H](n2nc(-c3ccc(Oc4ccccc4)cc3)c3c(N)ncnc32)C1` [Ibrutinib] showed a Fractional motility of 2.36.

same assay, conditions: secondary screen, 10 μM, D5, Female adult worms

Compared with `COc1ccc2cc1Oc1ccc(cc1)C[C@H]1c3cc(c(OC)cc3CCN1C)Oc1c(OC)c(OC)cc3c1[C@H](C2)N(C)CC3` [Tetrandrine], `O=C(O[C@H]1CN2CCC1CC2)N1CCc2ccccc2[C@@H]1c1ccccc1` [Solifenacin] is higher in Fractional motility: -0.97 for the first, -0.55 for the second.

`C=CC(=O)N1CCC[C@@H](n2nc(-c3ccc(Oc4ccccc4)cc3)c3c(N)ncnc32)C1` [Ibrutinib] showed a Fractional motility of 0.36.

same assay, conditions: secondary screen, 10 μM, D5, Male adult worms

First: COc1ccc2cc1Oc1ccc(cc1)C[C@H]1c3cc(c(OC)cc3CCN1C)Oc1c(OC)c(OC)cc3c1[C@H](C2)N(C)CC3 [Tetrandrine]
Second: O=C(O[C@H]1CN2CCC1CC2)N1CCc2ccccc2[C@@H]1c1ccccc1 [Solifenacin]
The Fractional motility of the first is lower: -0.61 for the first, 0.28 for the second.

Work on `C=CC(=O)N1CCC[C@@H](n2nc(-c3ccc(Oc4ccccc4)cc3)c3c(N)ncnc32)C1` [Ibrutinib] yielded a Fractional motility of 0.94.

system: S. mansoni schistosomulae; assay: Phenotypic primary screen assay on schistosomulae (phenotype; viability by methylene blue dye exclusion); format: cell-based; conditions: Schistosoma mansoni; three-day-old schistosomulae, 10 μM, 24 h; calculated 5 days post compound exposure; read-out: Viability (%)

First: COc1ccc2cc1Oc1ccc(cc1)C[C@H]1c3cc(c(OC)cc3CCN1C)Oc1c(OC)c(OC)cc3c1[C@H](C2)N(C)CC3 [Tetrandrine]
Second: O=C(O[C@H]1CN2CCC1CC2)N1CCc2ccccc2[C@@H]1c1ccccc1 [Solifenacin]
The viability at 10 µM of the first is lower: 89% for the first, 96.5% for the second.

`C=CC(=O)N1CCC[C@@H](n2nc(-c3ccc(Oc4ccccc4)cc3)c3c(N)ncnc32)C1` [Ibrutinib] showed a viability at 10 µM of 84.5%.
